This note sets out measurements from patent publication US9309248B2, “Azaindolines” (Hoffmann-La Roche Inc., priority 2012, dated 2016).

Molecules are shown by their SMILES.

The IC50 is the concentration needed to halve the response being measured. High values mean weaker potency, low ones greater potency.

The target of test [1] is T1, BIR2 domain of XIAP (Homo sapiens, UniProt P98170, C202A/C213G).
T1 construct: 6× Histidine-tagged BIR2 domain, corresponding to amino acids 124-240 of XIAP
Nature of the test: TR-FRET assay for BIR2 (inhibition of binding of XIAP BIR2 domain to SMAC-derived Peptide A). Conditions: 6x Histidine-tagged BIR2 domain (amino acids 124-240 of XIAP) 10 nM, Peptide A 20 nM. In a few lines: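 Inhibition of binding of the XIAP BIR2 domain (C202A/C213G) to biotinylated SMAC-derived Peptide A was measured. TR-FRET signal was read after 1 h at room temperature.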
A general note: TR-FRET usually uses a lanthanide donor and a delayed reading to cut background.

Test [2] concerns the target T2, BIR3 domain of XIAP (Homo sapiens, UniProt P98170).
T2 construct: BIR3 domain, corresponding to amino acids 241-356 of XIAP
Put plainly: TR-FRET assay for BIR3 (inhibition of binding of XIAP BIR3 domain to SMAC-derived Peptide A). The conditions noted are these: 6x Histidine-tagged BIR3 domain (amino acids 241-356 of XIAP) 10 nM, Peptide A 20 nM. In outline:
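His6-tagged XIAP BIR3 (aa 241-356, 10 nM) was mixed with 20 nM biotinylated SMAC-derived peptide in 50 mM Tris-Cl pH 7.5, 100 mM NaCl, 1 mM DTT, 0.1 mg/mL BSA and incubated 45 min at 37 °C. Eu-streptavidin (1.5 nM) and APC anti-His (15 nM) were added, with TR-FRET read 1 h later at RT. IC50 came from % inhibition over 10 serial concentrations.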

T2 sequence (P98170 with tags, fused parts or gaps): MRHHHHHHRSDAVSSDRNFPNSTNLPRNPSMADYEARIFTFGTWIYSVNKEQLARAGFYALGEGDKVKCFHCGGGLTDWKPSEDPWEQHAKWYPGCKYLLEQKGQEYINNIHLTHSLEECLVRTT
T1 sequence (P98170 with tags, fused parts or gaps C202A/C213G): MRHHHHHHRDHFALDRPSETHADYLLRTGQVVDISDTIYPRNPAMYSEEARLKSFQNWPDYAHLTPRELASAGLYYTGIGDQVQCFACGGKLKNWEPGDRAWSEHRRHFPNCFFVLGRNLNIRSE

Regarding `CN[C@@H](C)C(=O)N[C@H](C(=O)N1c2ncccc2C[C@H]1C(=O)Nc1cncnc1)C(C)C` [Example 56, (S)-1-[(S)-3-Methyl-2-((S)-2-methylamino-propionylamino)-butyryl]-2,3-dihydro-1H-pyrrolo[2,3-b]pyridine-2-carboxylic acid pyrimidin-5-ylamide], the IC50 was 1630 nM in test [1] and > 54800 nM in test [2].
With `CN[C@@H](C)C(=O)N[C@H](C(=O)N1c2ncccc2C[C@H]1C(=O)Nc1ccc2ccccc2c1)C(C)C` [Example 57, (S)-1-[(S)-3-Methyl-2-((S)-2-methylamino-propionylamino)-butyryl]-2,3-dihydro-1H-pyrrolo[2,3-b]pyridine-2-carboxylic acid naphthalen-2-ylamide], the IC50 in test [1] is 164 nM; in test [2], > 54800 nM.
Regarding `CN[C@@H](C)C(=O)N[C@H](C(=O)N1c2ncccc2C[C@H]1C(=O)Nc1ccc(C#N)cc1F)C(C)C` [Example 58, (S)-1-[(S)-3-Methyl-2-((S)-2-methylamino-propionylamino)-butyryl]-2,3-dihydro-1H-pyrrolo[2,3-b]pyridine-2-carboxylic acid (4-cyano-2-fluoro-phenyl)-amide], the IC50 in test [1] is 140 nM; in test [2], > 54800 nM.
For `CN[C@@H](C)C(=O)N[C@H](C(=O)N1c2ncccc2C[C@H]1C(=O)Nc1ccc(C(F)(F)F)cc1F)C(C)C` [Example 59, (S)-1-[(S)-3-Methyl-2-((S)-2-methylamino-propionylamino)-butyryl]-2,3-dihydro-1H-pyrrolo[2,3-b]pyridine-2-carboxylic acid (2-fluoro-4-trifluoromethyl-phenyl)-amide] the same measures were 53.6 nM and > 54800 nM.
For `CN[C@@H](C)C(=O)N[C@H](C(=O)N1c2ncccc2C[C@H]1C(=O)Nc1cccc(F)c1F)C(C)C` [Example 60, (S)-1-[(S)-3-Methyl-2-((S)-2-methylamino-propionylamino)-butyryl]-2,3-dihydro-1H-pyrrolo[2,3-b]pyridine-2-carboxylic acid (2,3-difluoro-phenyl)-amide] the same measures were 38.2 nM and > 54800 nM.
Take `CN[C@@H](C)C(=O)N[C@H](C(=O)N1c2ncccc2C[C@H]1C(=O)Nc1cc(F)ccc1F)C(C)C` [Example 61, (S)-1-[(S)-3-Methyl-2-((S)-2-methylamino-propionylamino)-butyryl]-2,3-dihydro-1H-pyrrolo[2,3-b]pyridine-2-carboxylic acid (2,5-difluoro-phenyl)-amide]: the half-maximal inhibitory concentration (IC50) was 34.8 nM in test [1] and > 54800 nM in test [2].
Take `CN[C@@H](C)C(=O)N[C@H](C(=O)N1c2ncccc2C[C@H]1C(=O)Nc1ccc(C(=O)N(C)C)cc1F)C(C)C` [Example 62, (S)-1-[(S)-3-Methyl-2-((S)-2-methylamino-propionylamino)-butyryl]-2,3-dihydro-1H-pyrrolo[2,3-b]pyridine-2-carboxylic acid (4-dimethylcarbamoyl-2-fluoro-phenyl)-amide]: the IC50 in test [1] is 35.1 nM; in test [2], > 54800 nM.
In the case of `CN[C@@H](C)C(=O)N[C@H](C(=O)N1c2ncccc2C[C@H]1C(=O)Nc1ccc(Br)cc1F)C(C)C` [Example 63, (S)-1-[(S)-3-Methyl-2-((S)-2-methylamino-propionylamino)-butyryl]-2,3-dihydro-1H-pyrrolo[2,3-b]pyridine-2-carboxylic acid (4-bromo-2-fluoro-phenyl)-amide], the IC50 in test [1] was 32 nM; in test [2] it was > 54800 nM.
In the same order, the values of `CNC(=O)c1ccc(NC(=O)[C@@H]2Cc3cccnc3N2C(=O)[C@@H](NC(=O)[C@H](C)NC)C(C)C)c(F)c1` [Example 64, (S)-1-[(S)-3-Methyl-2-((S)-2-methylamino-propionylamino)-butyryl]-2,3-dihydro-1H-pyrrolo[2,3-b]pyridine-2-carboxylic acid (2-fluoro-4-methylcarbamoyl-phenyl)-amide] are 59.6 nM and > 54800 nM.
